Reference: patent publication US9247759B2, “Identification of human T2R receptors that respond to bitter compounds that elicit the bitter taste in compositions, and the use thereof in assays to identify compounds that inhibit (block) bitter taste in compositions and use thereof” (SENOMYX, INC., priority 2007, dated 2016)

Tests used:
hT2R51 = hT2R51 (Homo sapiens (Human), UniProt P59533); assay: hT2R panel inhibition, transient HEK293 G16g44, agonist Prop 2.5 μM; type: cell-based; conditions: HEK293, compound at 25 μM; receptor activated to EC80 with the corresponding agonist; read-out: screening result against bitter receptor 51
Method: (§1) Specifically, in order to evaluate the inhibitory selectivity of the Compound C compound, this compound was tested against 22 human T2Rs which were deorphaned by Senomyx. These receptors and the bitter ligands that activate these human T2Rs are reported in earlier patent applications which are incorporated by reference herein. These 22 human T2Rs are hT2R1, 3, 4, 5, 7, 8, 9, 10, 13, 14, 16, 44, 51, 54, 55, 61, 63, 64, 65, 67, 71 and 75. The amino acid and nucleic acid sequences of all of these T2Rs may be found in these earlier patent applications. These human T2Rs were each individually transiently transfected into HEK293 cells that stably express the promiscuous G protein G16g44 and functional assays were effected using these receptors as disclosed in these same patent applications. […] The ligands were used at EC80 concentration levels. The list of bitter ligands utilized and the tested ligand concentrations are contained in Table 5 of this example.
(§2) Relating to the foregoing, FIG. 5 contains experimental results wherein Compound C was tested with different agonist compounds. The inhibition activity is represented by the reduction of receptor activity in the presence of Compound C. […] These 13 hT2Rs are hT2R3, 7, 10, 14, 16, 44, 51, 55, 61, 63, 64, 65, and 71.

hT2R63 = assay: hT2R panel inhibition, transient HEK293 G16g44, agonist Caffeine 1 mM or Andrographolide 100 μM; type: cell-based, human; conditions: compound at 25 μM; receptor activated to EC80 with the corresponding agonist
How it was run: (§3)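 Here, inhibition reflects how much the test compound lowers activation of a transiently expressed human bitter receptor stimulated at EC80. Twenty-two such receptors were tested separately.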

hT2R14 [1] = target: T1, hT2R14 (Homo sapiens (Human), UniProt Q9NYV8); assay: hT2R panel inhibition, transient HEK293 G16g44, agonist Aristolochic Acid 2 μM; type: cell-based; conditions: HEK293, compound at 25 μM; receptor activated to EC80 with the corresponding agonist; read-out: screening result against bitter receptor 14
How it was run: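 Each hT2R was transiently transfected into HEK293 cells stably expressing G16g44 and assayed functionally for inhibition of agonist response. Agonists were applied at EC80: andrographolide at 0.5 mM for hT2R8 and aristolochic acid at 2 μM for hT2R14.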

hT2R44 = assay: hT2R panel inhibition, transient HEK293 G16g44, agonist Denatonium 0.5 μM; type: cell-based, human; conditions: compound at 25 μM; receptor activated to EC80 with the corresponding agonist
How it was run: as §3

hT2R16 = hT2R16 (Homo sapiens (Human), UniProt Q9NYV7); assay: hT2R panel inhibition, transient HEK293 G16g44, agonist Salicin 1 mM; type: cell-based; conditions: HEK293, compound at 25 μM; receptor activated to EC80 with the corresponding agonist; read-out: screening result against bitter receptor 16
How it was run: as §3

hT2R10 = hT2R10 (Homo sapiens (Human), UniProt Q9NYW0); assay: hT2R panel inhibition, transient HEK293 G16g44, agonist Strychnine 50 μM; type: cell-based; conditions: HEK293, read-out: screening result against bitter receptor 10, compound at 25 μM; receptor activated to EC80 with the corresponding agonist
hT2R71 = hT2R71 (Homo sapiens (Human), UniProt P59536); assay: hT2R panel inhibition, transient HEK293 G16g44, agonist Picric Acid 10 μM; type: cell-based; conditions: HEK293, compound at 25 μM; receptor activated to EC80 with the corresponding agonist; read-out: screening result against bitter receptor 71
How it was run: as §3

hT2R67 = assay: hT2R panel inhibition, transient HEK293 G16g44, agonist Andrographolide 5 μM; type: cell-based, human; conditions: compound at 25 μM; receptor activated to EC80 with the corresponding agonist
Method: as §1, §2

hT2R7 = hT2R7 (Homo sapiens (Human), UniProt Q9NYW3); assay: hT2R panel inhibition, transient HEK293 G16g44, agonist Chloroquine pH6.5 10 mM; type: cell-based; conditions: HEK293, compound at 25 μM; receptor activated to EC80 with the corresponding agonist; read-out: screening result against bitter receptor 7
Method: as §1, §2

hT2R65 = assay: hT2R panel inhibition, transient HEK293 G16g44, agonist Oleuropein 1 mM; type: cell-based, human; conditions: compound at 25 μM; receptor activated to EC80 with the corresponding agonist
Method: as §1, §2

hT2R61 = hT2R61 (Homo sapiens (Human), UniProt P59537); assay: hT2R panel inhibition, transient HEK293 G16g44, agonist Aristolochic Acid 25 nM; type: cell-based; conditions: HEK293, compound at 25 μM; receptor activated to EC80 with the corresponding agonist; read-out: screening result against bitter receptor 61
How it was run: as §3

hT2R54 = assay: hT2R panel inhibition, transient HEK293 G16g44, agonist Ranitidine 5 mM; type: cell-based, human; conditions: compound at 25 μM; receptor activated to EC80 with the corresponding agonist
Method: as §1, §2

hT2R5 = hT2R5 (Homo sapiens (Human), UniProt Q9NYW4); assay: hT2R panel inhibition, transient HEK293 G16g44, agonist Picoline 10 mM; type: cell-based; conditions: HEK293, compound at 25 μM; receptor activated to EC80 with the corresponding agonist; read-out: screening result against bitter receptor 5
How it was run: as §3

hT2R3 = hT2R3 (Homo sapiens (Human), UniProt Q9NYW6); assay: hT2R panel inhibition, transient HEK293 G16g44, agonist Chloroquine pH6.5 50 μM; type: cell-based; conditions: HEK293, compound at 25 μM; receptor activated to EC80 with the corresponding agonist; read-out: screening result against bitter receptor 3
How it was run: as §3

hT2R64 = hT2R64 (Homo sapiens (Human), UniProt P59538); assay: hT2R panel inhibition, transient HEK293 G16g44, agonist Aristolochic Acid 1 μM; type: cell-based; conditions: HEK293, compound at 25 μM; receptor activated to EC80 with the corresponding agonist; read-out: screening result against bitter receptor 64
How it was run: as §3

hT2R55 = assay: hT2R panel inhibition, transient HEK293 G16g44, agonist Cinchonine 150 μM; type: cell-based, human; conditions: compound at 25 μM; receptor activated to EC80 with the corresponding agonist
How it was run: as §3

hT2R75 = hT2R75 (Homo sapiens (Human), UniProt P59540); assay: hT2R panel inhibition, transient HEK293 G16g44, agonist Strychnine 1 μM; type: cell-based; conditions: HEK293, read-out: screening result against bitter receptor 75, compound at 25 μM; receptor activated to EC80 with the corresponding agonist
Method: as §1, §2

hT2R14 [2] = target: T1, hT2R14; assay: hT2R14 antagonist high-throughput FLIPR assay, stable cell line with G16g44, agonist aristolochic acid; type: cell-based; conditions: read-out: IC50 on hT2R14 bitter receptor
How it was run: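 HEK293 cells stably expressing hT2R14 with chimeric G16g44 were stimulated with aristolochic acid (3 μM), giving 70-80% of maximal receptor activity. Test compounds were added together with the agonist, and antagonism was read as fluorescent calcium signal on FLIPR.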

hT2R16, sequence (Q9NYV7 whole entry): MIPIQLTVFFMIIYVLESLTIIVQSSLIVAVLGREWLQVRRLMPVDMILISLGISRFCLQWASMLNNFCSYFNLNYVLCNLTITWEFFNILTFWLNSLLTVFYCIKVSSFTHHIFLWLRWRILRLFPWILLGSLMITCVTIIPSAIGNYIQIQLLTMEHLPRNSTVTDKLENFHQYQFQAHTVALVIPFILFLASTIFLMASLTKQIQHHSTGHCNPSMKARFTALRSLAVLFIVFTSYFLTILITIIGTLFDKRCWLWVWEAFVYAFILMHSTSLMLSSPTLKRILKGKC
hT2R51, sequence (P59533 whole entry): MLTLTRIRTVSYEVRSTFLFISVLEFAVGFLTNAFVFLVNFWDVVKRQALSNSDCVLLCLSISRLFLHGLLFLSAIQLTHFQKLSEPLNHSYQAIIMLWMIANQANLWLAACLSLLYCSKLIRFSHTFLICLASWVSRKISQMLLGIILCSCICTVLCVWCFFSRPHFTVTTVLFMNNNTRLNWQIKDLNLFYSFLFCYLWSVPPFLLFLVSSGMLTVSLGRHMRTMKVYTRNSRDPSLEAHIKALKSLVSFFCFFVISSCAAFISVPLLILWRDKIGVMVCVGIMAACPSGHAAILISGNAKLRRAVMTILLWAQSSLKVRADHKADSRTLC
hT2R64, sequence (P59538 whole entry): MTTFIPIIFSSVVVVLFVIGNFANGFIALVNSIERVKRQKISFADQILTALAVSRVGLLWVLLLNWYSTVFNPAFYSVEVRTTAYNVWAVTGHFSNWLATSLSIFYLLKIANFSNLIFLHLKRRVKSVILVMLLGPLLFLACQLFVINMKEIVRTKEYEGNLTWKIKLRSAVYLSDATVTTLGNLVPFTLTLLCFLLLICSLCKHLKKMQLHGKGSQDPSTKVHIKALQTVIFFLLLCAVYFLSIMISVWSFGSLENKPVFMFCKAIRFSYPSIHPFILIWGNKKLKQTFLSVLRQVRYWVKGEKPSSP
hT2R75, sequence (P59540 whole entry): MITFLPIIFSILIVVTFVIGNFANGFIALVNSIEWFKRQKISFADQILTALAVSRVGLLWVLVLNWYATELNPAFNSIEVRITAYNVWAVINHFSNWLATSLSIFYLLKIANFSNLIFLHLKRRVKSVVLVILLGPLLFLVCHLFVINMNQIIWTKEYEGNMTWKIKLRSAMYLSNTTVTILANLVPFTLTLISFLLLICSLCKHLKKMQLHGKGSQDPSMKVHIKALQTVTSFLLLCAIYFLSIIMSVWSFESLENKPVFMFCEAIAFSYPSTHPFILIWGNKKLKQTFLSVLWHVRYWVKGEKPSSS
hT2R3, sequence (Q9NYW6 whole entry): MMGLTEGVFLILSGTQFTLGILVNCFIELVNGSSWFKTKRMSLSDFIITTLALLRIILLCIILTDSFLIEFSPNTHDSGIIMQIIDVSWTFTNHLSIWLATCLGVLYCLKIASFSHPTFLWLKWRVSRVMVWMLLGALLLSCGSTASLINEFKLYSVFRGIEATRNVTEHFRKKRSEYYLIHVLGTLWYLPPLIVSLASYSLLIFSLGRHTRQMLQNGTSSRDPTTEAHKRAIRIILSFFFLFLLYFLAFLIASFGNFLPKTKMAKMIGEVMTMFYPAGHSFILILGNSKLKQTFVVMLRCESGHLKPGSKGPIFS
hT2R61, sequence (P59537 whole entry): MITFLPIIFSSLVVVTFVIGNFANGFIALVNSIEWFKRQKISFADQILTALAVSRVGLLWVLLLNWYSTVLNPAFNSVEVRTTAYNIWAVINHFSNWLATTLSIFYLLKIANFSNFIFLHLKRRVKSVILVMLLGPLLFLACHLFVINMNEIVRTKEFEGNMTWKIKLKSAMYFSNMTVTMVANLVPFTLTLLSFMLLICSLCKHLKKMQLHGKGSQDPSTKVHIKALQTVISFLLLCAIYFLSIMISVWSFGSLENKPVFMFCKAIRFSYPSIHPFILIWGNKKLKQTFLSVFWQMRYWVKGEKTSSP
hT2R5, sequence (Q9NYW4 whole entry): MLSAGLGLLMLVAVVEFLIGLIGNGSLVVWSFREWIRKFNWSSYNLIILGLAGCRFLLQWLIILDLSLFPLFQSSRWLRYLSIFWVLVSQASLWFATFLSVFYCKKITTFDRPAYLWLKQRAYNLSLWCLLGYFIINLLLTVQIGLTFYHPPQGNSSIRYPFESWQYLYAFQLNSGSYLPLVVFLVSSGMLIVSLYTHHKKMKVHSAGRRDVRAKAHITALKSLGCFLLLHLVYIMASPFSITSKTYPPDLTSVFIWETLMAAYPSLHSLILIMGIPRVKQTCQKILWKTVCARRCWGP
T1 sequence (Q9NYV8 whole entry): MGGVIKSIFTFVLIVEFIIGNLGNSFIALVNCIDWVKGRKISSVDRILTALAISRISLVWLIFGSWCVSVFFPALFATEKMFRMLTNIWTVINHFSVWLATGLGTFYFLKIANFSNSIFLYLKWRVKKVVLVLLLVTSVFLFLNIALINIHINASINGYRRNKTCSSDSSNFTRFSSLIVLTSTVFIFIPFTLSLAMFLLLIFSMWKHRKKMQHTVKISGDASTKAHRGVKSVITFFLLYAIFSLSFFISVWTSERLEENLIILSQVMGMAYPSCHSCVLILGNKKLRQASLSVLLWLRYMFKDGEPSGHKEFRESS
hT2R71, sequence (P59536 whole entry): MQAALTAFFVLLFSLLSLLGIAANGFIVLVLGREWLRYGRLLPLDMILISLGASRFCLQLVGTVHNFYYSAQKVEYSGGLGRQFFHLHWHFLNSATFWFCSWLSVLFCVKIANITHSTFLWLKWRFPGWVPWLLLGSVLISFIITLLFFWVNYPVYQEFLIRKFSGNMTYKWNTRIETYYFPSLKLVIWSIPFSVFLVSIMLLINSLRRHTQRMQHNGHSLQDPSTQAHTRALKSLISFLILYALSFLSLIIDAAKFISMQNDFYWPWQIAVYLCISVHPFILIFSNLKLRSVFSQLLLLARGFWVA
hT2R10, sequence (Q9NYW0 whole entry): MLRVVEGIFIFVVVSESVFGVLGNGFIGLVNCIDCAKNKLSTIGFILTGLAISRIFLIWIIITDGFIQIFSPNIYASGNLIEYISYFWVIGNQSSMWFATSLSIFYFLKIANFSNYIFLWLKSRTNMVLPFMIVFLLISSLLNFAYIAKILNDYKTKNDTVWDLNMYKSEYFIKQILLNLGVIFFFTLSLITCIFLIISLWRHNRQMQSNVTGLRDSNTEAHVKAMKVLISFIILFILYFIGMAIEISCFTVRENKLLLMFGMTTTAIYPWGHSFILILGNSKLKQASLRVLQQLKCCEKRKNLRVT
hT2R7, sequence (Q9NYW3 whole entry): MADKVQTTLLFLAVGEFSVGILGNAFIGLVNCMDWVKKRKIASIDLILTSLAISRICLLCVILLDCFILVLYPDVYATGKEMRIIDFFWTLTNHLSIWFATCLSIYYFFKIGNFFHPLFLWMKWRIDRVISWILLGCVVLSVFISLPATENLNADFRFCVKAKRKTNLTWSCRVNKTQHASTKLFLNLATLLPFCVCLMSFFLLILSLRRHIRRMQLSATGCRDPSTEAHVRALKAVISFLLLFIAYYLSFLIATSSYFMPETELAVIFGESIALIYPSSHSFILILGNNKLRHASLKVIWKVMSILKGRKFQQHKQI

SMILES | inhibition at 25 µM (hT2R51) [%] | screening result against bitter receptor 63 (hT2R63) | inhibition at 25 µM (hT2R14 [1]) [%] | screening result against bitter receptor 44 (hT2R44) | inhibition at 25 µM (hT2R16) [%] | inhibition at 25 µM (hT2R10) [%] | inhibition at 25 µM (hT2R71) [%] | screening result against bitter receptor 67 (hT2R67) | inhibition at 25 µM (hT2R7) [%] | screening result against bitter receptor 65 (hT2R65) | inhibition at 25 µM (hT2R61) [%] | screening result against bitter receptor 54 (hT2R54) | inhibition at 25 µM (hT2R5) [%] | inhibition at 25 µM (hT2R3) [%] | inhibition at 25 µM (hT2R64) [%] | screening result against bitter receptor 55 (hT2R55) | inhibition at 25 µM (hT2R75) [%] | IC50 (hT2R14 [2]) [nM]
COc1cccc(CN(Cc2ccccc2)S(=O)(=O)c2ccc(C(=O)O)cc2)c1 [Example 5-74, 4-(N-benzyl-N-(3-methoxybenzyl)sulfamoyl)benzoic acid] | 40 to 60 | ++++ (80% or greater inhibition = ++++) | > 80 | + (20% to 40% inhibition = +) | 20 to 40 | 40 to 60 | 60 to 80 | + (20% to 40% inhibition = +) | 20 to 40 | ++ (40% to 60% inhibition = ++) | > 80 | ++ (40% to 60% inhibition = ++) | 20 to 40 | 20 to 40 | 20 to 40 | +++ (60% to 80% inhibition = +++) |  | 
COc1ccc(CN(C(C)c2ccccc2)S(=O)(=O)c2ccc(C(=O)O)cc2)cc1 (centres unmarked) [Example 5-95, 4-(N-(4-methoxybenzyl)-N-(1-phenylethyl)sulfamoyl)benzoic acid] | 20 to 40 | ++++ (80% or greater inhibition = ++++) | > 80 | +++ (60% to 80% inhibition = +++) | 40 to 60 | 20 to 40 | 40 to 60 | + (20% to 40% inhibition = +) | 20 to 40 | +++ (60% to 80% inhibition = +++) | > 80 |  | 20 to 40 | 40 to 60 | 60 to 80 | ++++ (80% or greater inhibition = ++++) | 20 to 40 | 
COc1ccccc1CN(Cc1ccc(C(=O)O)cc1)S(=O)(=O)c1ccc(O)cc1 [Example 5-42, 4-((4-hydroxy-N-(2-methoxybenzyl)phenylsulfonamido)methyl)-benzoic acid] |  | ++ (40% to 60% inhibition = ++) | > 80 | ++ (40% to 60% inhibition = ++) | 20 to 40 |  | 40 to 60 |  |  |  | > 80 |  |  | 20 to 40 | 40 to 60 |  | 20 to 40 | 2560
N#Cc1cccc(CN(Cc2ccccc2)S(=O)(=O)c2ccc(C(=O)O)cc2)c1 [Example 5-75, 4-(N-benzyl-N-(3-cyanobenzyl)sulfamoyl)benzoic acid] | 20 to 40 | + (20% to 40% inhibition = +) |  |  |  |  |  |  |  |  | 20 to 40 |  | 20 to 40 |  |  |  | 20 to 40 | 
